# Results reported in US20110038791A1, “METHODS FOR INHIBITING SIX1 AND EYA PROTEINS” (priority 2008, published 2011).
# Where two headings read alike, the source gives them in different places.
# Molecular target: T1, human Eya2 Eya Domain (ED) (Homo sapiens, UniProt O00167)
# T1 construct: a highly conserved C-terminal Eya domain (ED); made in house; host or cells: E. coli
# T1 sequence (O00167 253-538 limits assumed): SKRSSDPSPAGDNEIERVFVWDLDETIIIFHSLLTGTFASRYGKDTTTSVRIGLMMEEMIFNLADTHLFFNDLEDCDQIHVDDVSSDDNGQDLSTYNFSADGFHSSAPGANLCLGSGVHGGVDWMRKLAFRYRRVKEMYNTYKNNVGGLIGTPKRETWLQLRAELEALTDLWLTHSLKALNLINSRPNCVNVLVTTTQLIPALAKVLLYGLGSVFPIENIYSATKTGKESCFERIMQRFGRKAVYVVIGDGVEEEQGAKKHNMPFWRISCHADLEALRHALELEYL
# Experiment: Inhibition of the phosphatase activity of Eya2 Eya Domain (ED) by known phosphatase inhibitors
# Format: biochemical
# Conditions: for IC50: human Eya2 ED, FIG. 20
# [1] = at the concentrations that typically completely inhibit their cognate phosphatases
compound,measurement,setting,value
"c1cnc2c(c1)ccc1cccnc12 [(1, 10)-phenanthroline]",effect on ED phosphatase activity,[1],no effect
N[C@@H](Cc1ccccc1)C(=O)O [L-phenylalanine],effect on ED phosphatase activity,[1],no effect
[Na+].[Na+].[O]=[Mo](=[O])([O-])[O-] [Na2MoO4],IC50,,11.3 ± 1.6 mM
[Na+].[Na+].[Na+].[O]=[V]([O-])([O-])[O-] [Na3VO4],IC50,,1.8 ± 0.2 mM
C=C1[C@@H](O)[C@@H]2O[C@]3(CC[C@H](/C=C/[C@@H](C)[C@@H]4CC(C)=C[C@@]5(O[C@H](C[C@@](C)(O)C(=O)O)CC[C@H]5O)O4)O3)CC[C@H]2O[C@@H]1[C@@H](O)C[C@H](C)[C@H]1O[C@@]2(CCCCO2)CC[C@H]1C [Okadaic acid],effect on ED phosphatase activity,,no effect
O=P(O)(O)OC(CO)CO [β-glycerophosphate],IC50,,8.2 ± 2.1 mM
cyclosporine A,effect on ED phosphatase activity,,no effect
